# System: IL-1β release upon NLRP3 activation in peripheral blood mononuclear cells (PBMC)
# Experiment: PBMC IC50 determination assay: inhibition of IL-1β release upon NLRP3 activation
# Assay type: cell-based
# Details: PBMC, PBMC primed with LPS 3 h, compound 30 min, stimulated with ATP (5 mM) or nigericin (10 μM) 1 h; IL-1β by ELISA (Protocol A) or HTRF (Protocol B)
# Experimental: PBMC IC50 determination assay. The compounds of the present disclosure were tested for their inhibitory activity against IL-1β release upon NLRP3 activation in peripheral blood mononuclear cells (PBMC).
# Protocol A. PBMC were isolated from buffy coats by density gradient centrifugation on Histopaque-1077 (Sigma, cat no. 10771). Isolated cells were seeded into the wells of a 96-well plate and incubated for 3 h with lipopolysaccharide (LPS). Following medium exchange, the compounds of the present disclosure were added (a single compound per well) and the cells were incubated for 30 min. Next, the cells were stimulated either with ATP (5 mM) or nigericin (10 μM) for 1 h and the cell culture media from the wells were collected for further analysis.
# The release of IL-1β into the media was determined by a quantitative detection of IL-1β in the media using an IL-1β enzyme-linked immunosorbent assay (ELISA) Ready-SET-Go!, eBioscience cat. No. 88-7261-88. Briefly, in a first step, high affinity binding plates (Corning, Costar 9018 or NUNC Maxisorp Cat No. 44-2404) were coated overnight at 4° C. with specific capture antibody included in the kit (anti-human IL-1β ref. 14-7018-68). Subsequently, plates were blocked with blocking buffer for 1 h at room temperature (rt) and after washing with a buffer (PBS with 0.05% Tween-20) incubated with protein standard and culture media. After 2 h of incubation at rt, plates were washed and incubated with biotinylated detection antibody included in the kit (anti-human IL-1β Biotin ref 33-7110-68) for 1 h at rt. Plates were washed and incubated with HRP-streptavidin for 30 min at rt and washed again. The signal was developed after addition of 3,3′,5,5′-tetramethylbenzidine-peroxidase (TMB) until colour appeared and the reaction was stopped by 2 M H2SO4. A microplate spectrophotometer (BioTek) was used to detect signals with 450 nm. The detection range of IL-1β ELISA was […].
# Protocol B. PBMC were isolated from buffy coats by density gradient centrifugation on Histopaque-1077 (Sigma, cat no. 10771). Isolated cells were seeded into the wells (280,000 cells/well) of a 96-well plate and incubated for 3 h with lipopolysaccharide (LPS, 1 μg/mL diluted 1000× from a 1 mg/mL stock solution). The compounds of the present disclosure were added (a single compound per well) and the cells were incubated for 30 min. Next, the cells were stimulated with ATP (5 mM final concentration diluted 20× from a 100 mM stock solution) for 1 h and the cell culture media from the wells were collected for further analysis.
# The release of IL-1β into the media was determined by quantitative detection of IL-1β in the media using HTRF®, CisBio cat. No. 62HIL1BPEH. Briefly, cell culture supernatant were dispensed directly into the assay plate containing antibodies labelled with the HTRF® donor and acceptor. A microplate spectrophotometer (BMG) was used to detect signals at 655 nm and 620 nm. The detection range of IL-1β HTRF® was 39-6500 μg/mL.
structure (smiles),measurement,value
"CC(C)c1nn(CC(=O)Nc2ncco2)c(=O)c2cc(C3CC3)oc12 [Compound 79, 2-(2-Cyclopropyl-7-isopropyl-4-oxofuro[2,3-d]pyridazin-5(4H)-yl)-N-(oxazol-2-yl)acetamide]",IC50,100 to 1000 nM
"CCOC(=O)c1cnc(NC(=O)Cn2nc(C(C)C)c3oc(C4CC4)cc3c2=O)nc1 [Compound 80, Ethyl 2-(2-(2-cyclopropyl-7-isopropyl-4-oxofuro[2,3-d]pyridazin-5(4H)-yl)acetamido)pyrimidine-5-carboxylate]",IC50,100 to 1000 nM
"CC(C)c1nn(CC(=O)N[C@H]2C[C@@](C)(O)C2)c(=O)c2cc(C3CC3)oc12 [Compound 81, 2-(2-Cyclopropyl-7-isopropyl-4-oxofuro[2,3-d]pyridazin-5(4H)-yl)-N-((1s,3s)-3-hydroxy-3-methylcyclobutyl)acetamide]",IC50,100 to 1000 nM
"Cc1nn(CC(=O)Nc2ncccn2)c(=O)c2cc(C3CC3)oc12 [Compound 82, 2-{2-Cyclopropyl-7-methyl-4-oxo-4H,5H-furo[2,3-d]pyridazin-5-yl}-N-(pyrimidin-2-yl)acetamide]",IC50,100 to 1000 nM
"Cc1cnc(NC(=O)Cn2nc(C)c3oc(C4CC4)cc3c2=O)nc1 [Compound 83, 2-{2-Cyclopropyl-7-methyl-4-oxo-4H,5H-furo[2,3-d]pyridazin-5-yl}-N-(5-methylpyrimidin-2-yl)acetamide]",IC50,100 to 1000 nM
"Cc1nn(CC(=O)Nc2ncc(Cl)cn2)c(=O)c2cc(C3CC3)oc12 [Compound 84, N-(5-Chloropyrimidin-2-yl)-2-{2-cyclopropyl-7-methyl-4-oxo-4H,5H-furo[2,3-d]pyridazin-5-yl}acetamide]",IC50,100 to 1000 nM
"Cc1nn(CC(=O)N[C@H]2C[C@@](C)(O)C2)c(=O)c2cc(C3CC3)oc12 [Compound 85, 2-{2-Cyclopropyl-7-methyl-4-oxo-4H,5H-furo[2,3-d]pyridazin-5-yl}-N-[cis-3-hydroxy-3-methylcyclobutyl]acetamide]",IC50,1000 to 3000 nM
"CCOC(=O)c1cnc(NC(=O)Cn2nc(C)c3cc(C4CC4)sc3c2=O)nc1 [Compound 86, Ethyl 2-(2-{2-cyclopropyl-4-methyl-7-oxo-6H,7H-thieno[2,3-d]pyridazin-6-yl}acetamido)pyrimidine-5-carboxylate]",IC50,100 to 1000 nM
"Cc1nn(CC(=O)Nc2ncco2)c(=O)c2cc(C3CC3)oc12 [Compound 87, 2-{2-cyclopropyl-7-methyl-4-oxo-4H,5H-furo[2,3-d]pyridazin-5-yl}-N-(1,3-oxazol-2-yl)acetamide]",IC50,1000 to 3000 nM
"Cc1nn(CC(=O)Nc2ncccn2)c(=O)c2sc(C3CC3)cc12 [Compound 88, 2-{2-Cyclopropyl-4-methyl-7-oxo-6H,7H-thieno[2,3-d]pyridazin-6-yl}-N-(pyrimidin-2-yl)acetamide]",IC50,100 to 1000 nM
"CCc1nn(CC(=O)Nc2ncccn2)c(=O)c2cc(C3CC3)oc12 [Compound 89, 2-{2-cyclopropyl-7-ethyl-4-oxo-4H,5H-furo[2,3-d]pyridazin-5-yl}-N-(pyrimidin-2-yl)acetamide]",IC50,100 to 1000 nM
"CCOC(=O)c1cnc(NC(=O)Cn2nc(C)c3oc(C4CC4)cc3c2=O)nc1 [Compound 90, Ethyl 2-(2-{2-cyclopropyl-7-methyl-4-oxo-4H,5H-furo[2,3-d]pyridazin-5-yl}acetamido)pyrimidine-5-carboxylate]",IC50,100 to 1000 nM
"Cc1nn(CC(=O)Nc2ncc(C#N)cn2)c(=O)c2cc(C3CC3)oc12 [Compound 91, N-(5-Cyanopyrimidin-2-yl)-2-{2-cyclopropyl-7-methyl-4-oxo-4H,5H-furo[2,3-d]pyridazin-5-yl}acetamide]",IC50,100 to 1000 nM
"CCOC(=O)Cc1cnc(NC(=O)Cn2nc(C)c3oc(C4CC4)cc3c2=O)nc1 [Compound 92, Ethyl 2-[2-(2-{2-cyclopropyl-7-methyl-4-oxo-4H,5H-furo[2,3-d]pyridazin-5-yl}acetamido)pyrimidin-5-yl]acetate]",IC50,100 to 1000 nM
"CC(C)Nc1cc2c(C(C)C)nn(CC(=O)Nc3ncccn3)c(=O)c2s1 [Compound 93, 2-[7-Oxo-4-(propan-2-yl)-2-[(propan-2-yl)amino]-6H,7H-thieno[2,3-d]pyridazin-6-yl]-N-(pyrimidin-2-yl)acetamide]",IC50,100 to 1000 nM
"CNc1cc2c(C(C)C)nn(CC(=O)Nc3ncccn3)c(=O)c2s1 [Compound 94, 2-[2-(Methylamino)-7-oxo-4-(propan-2-yl)-6H,7H-thieno[2,3-d]pyridazin-6-yl]-N-(pyrimidin-2-yl)acetamide]",IC50,≤ 100 nM
"CC(C)c1nn(CC(=O)Nc2ncccn2)c(=O)c2sc(NCC(F)F)cc12 [Compound 95, 2-{2-[(2,2-Difluoroethyl)amino]-7-oxo-4-(propan-2-yl)-6H,7H-thieno[2,3-d]pyridazin-6-yl}-N-(pyrimidin-2-yl)acetamide]",IC50,100 to 1000 nM
"COCCNc1cc2c(C(C)C)nn(CC(=O)Nc3ncccn3)c(=O)c2s1 [Compound 96, 2-{2-[(2-Methoxyethyl)amino]-7-oxo-4-(propan-2-yl)-6H,7H-thieno[2,3-d]pyridazin-6-yl}-N-(pyrimidin-2-yl)acetamide]",IC50,10000 to 50000 nM
"CCN(C)c1cc2c(C(C)C)nn(CC(=O)Nc3ncccn3)c(=O)c2s1 [Compound 97, 2-{2-[Ethyl(methyl)amino]-7-oxo-4-(propan-2-yl)-6H,7H-thieno[2,3-d]pyridazin-6-yl}-N-(pyrimidin-2-yl)acetamide]",IC50,3000 to 10000 nM
"CCNc1cc2c(C)nn(CC(=O)Nc3ncccn3)c(=O)c2s1 [Compound 98, 2-[2-(Ethylamino)-4-methyl-7-oxo-6H,7H-thieno[2,3-d]pyridazin-6-yl]-N-(pyrimidin-2-yl)acetamide]",IC50,1000 to 3000 nM
"CCCc1cc2c(C(C)C)nn(CC(=O)Nc3ncccn3)c(=O)c2s1 [Compound 99, 2-[7-Oxo-4-(propan-2-yl)-2-propyl-6H,7H-thieno[2,3-d]pyridazin-6-yl]-N-(pyrimidin-2-yl)acetamide]",IC50,100 to 1000 nM
"CC(C)c1nn(CC(=O)Nc2ncccn2)c(=O)c2sc(NCC(F)(F)F)cc12 [Compound 100, 2-[7-Oxo-4-(propan-2-yl)-2-[(2,2,2-trifluoroethyl)amino]-6H,7H-thieno[2,3-d]pyridazin-6-yl]-N-(pyrimidin-2-yl)acetamide]",IC50,1000 to 3000 nM
"CC(C)c1nn(CC(=O)Nc2ncccn2)c(=O)c2sc(N)cc12 [Compound 101, 2-[2-Amino-7-oxo-4-(propan-2-yl)-6H,7H-thieno[2,3-d]pyridazin-6-yl]-N-(pyrimidin-2-yl)acetamide]",IC50,1000 to 3000 nM
"CCNc1cc2c(=O)n(CC(=O)Nc3ncccn3)nc(C(C)C)c2o1 [Compound 102, 2-[2-(Ethylamino)-4-oxo-7-(propan-2-yl)-4H,5H-furo[2,3-d]pyridazin-5-yl]-N-(pyrimidin-2-yl)acetamide]",IC50,100 to 1000 nM
"Cc1nn(CC(=O)Nc2ccc3nncn3c2)c(=O)c2cc(C3CC3)oc12 [Compound 103, 2-{2-Cyclopropyl-7-methyl-4-oxo-4H,5H-furo[2,3-d]pyridazin-5-yl}-N-{[1,2,4]triazolo[4,3-a]pyridin-6-yl}acetamide]",IC50,1000 to 3000 nM
"CC(C)c1nn(CC(=O)Nc2ccc3nncn3c2)c(=O)c2cc(C3CC3)oc12 [Compound 104, 2-[2-Cyclopropyl-4-oxo-7-(propan-2-yl)-4H,5H-furo[2,3-d]pyridazin-5-yl]-N-{[1,2,4]triazolo[4,3-a]pyridin-6-yl}acetamide]",IC50,100 to 1000 nM
"CC(C)c1nn(CC(=O)Nc2ccc3nncn3n2)c(=O)c2cc(C3CC3)oc12 [Compound 105, 2-[2-Cyclopropyl-4-oxo-7-(propan-2-yl)-4H,5H-furo[2,3-d]pyridazin-5-yl]-N-{[1,2,4]triazolo[4,3-b]pyridazin-6-yl}acetamide]",IC50,100 to 1000 nM
"Cc1nn(CC(=O)Nc2ccc3nncn3n2)c(=O)c2cc(C3CC3)oc12 [Compound 106, 2-{2-Cyclopropyl-7-methyl-4-oxo-4H,5H-furo[2,3-d]pyridazin-5-yl}-N-{[1,2,4]triazolo[4,3-b]pyridazin-6-yl}acetamide]",IC50,100 to 1000 nM
"CCOc1cc2c(C(C)C)nn(CC(=O)Nc3ncccn3)c(=O)c2s1 [Compound 107, 2-[2-Ethoxy-7-oxo-4-(propan-2-yl)-6H,7H-thieno[2,3-d]pyridazin-6-yl]-N-(pyrimidin-2-yl)acetamide]",IC50,1000 to 3000 nM

# From patent US20250066369A1, “BICYCLIC PHTHALAZIN-1(2H)-ONE DERIVATIVES AND RELATED USES” (NodThera Limited, priority 2022, published 2025)
